From publication PMC7003846, “Effects of the ventilatory stimulant, doxapram on human TASK‐3 (KCNK9, K2P9.1) channels and TASK‐1 (KCNK3, K2P3.1) channels” (Acta Physiologica (Oxford, England), 2019)
Like-named read-outs stand apart in the source and are kept apart here.

Columns and labels:
human TASK-3 = molecular target: T1, human TASK-3 (Homo sapiens, UniProt Q9NPC2); experiment: Whole-cell patch clamp on tsA201 cells expressing cloned human TASK-3; type: cell-based; conditions: for inhibition of human TASK-3 current: acute application; for EC50: tsA201 cells, whole-cell patch clamp, room temperature, read-out: EC50, inhibition of human TASK-3 current
T1 construct: expressed in transfected cells; host or cells: tsA201 (modified HEK293), transient transfection, pcDNA3.1+
T1 sequence (Q9NPC2 whole entry): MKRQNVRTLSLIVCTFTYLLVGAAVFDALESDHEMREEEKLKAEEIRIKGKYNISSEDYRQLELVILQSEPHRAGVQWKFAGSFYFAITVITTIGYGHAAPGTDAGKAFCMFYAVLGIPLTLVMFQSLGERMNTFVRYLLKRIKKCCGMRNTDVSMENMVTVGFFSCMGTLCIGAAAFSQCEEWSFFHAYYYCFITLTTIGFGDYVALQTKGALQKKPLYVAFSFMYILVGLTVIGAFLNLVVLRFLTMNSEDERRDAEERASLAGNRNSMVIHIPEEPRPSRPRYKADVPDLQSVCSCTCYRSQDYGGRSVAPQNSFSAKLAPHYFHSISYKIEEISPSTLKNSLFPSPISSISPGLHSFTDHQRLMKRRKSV
Method: (§1) Murine (mur) wild‐type (WT) TASK‐1 (KCNK3, Genbank^TM DQ185133) and WT murTASK‐3 (KCNK9, Genbank^TM AH009585.2) cDNA were cloned into pCS2^+ vector and were a kind gift from William Wisden (Imperial College, UK). Human WT TASK‐1 (Genbank^TM AF006823.1), WT TASK‐3 (Genbank^TM AF212829) and WT TASK‐2 (KCNK5, Genbank^TM AF084830.1) cDNA’s, were cloned into pcDNA3.1^+ vector (Invitrogen) and were a kind gift from Helen Meadows (GlaxoSmithKline).
(§2) All experiments were performed using a modified human embryonic kidney 293 cell line, tsA201 (ECACC; Sigma‐Aldrich), prepared and maintained as previously described.54
(§3) For the electrophysiological experiments, cells were transiently transfected using a modified calcium phosphate protocol, following a process as previously described.54 Vectors cloned with the gene of interest and a similar vector encoding the cDNA for GFP were added to each well at a concentration of 0.5 µg per well, with the exception being for murTASK‐3, where 0.125 µg per well was used.
(§4) Currents were recorded from tsA201 cells transiently transfected with the channel of interest using whole‐cell patch clamp in a voltage clamp configuration and a step‐ramp voltage protocol as previously described.54 Briefly, all experiments were conducted at room temperature (20‐24°C) using an external solution composed of 145 mM of NaCl, 2.5 mM of KCL, 3 mM of MgCl2, 1 mM of CaCl2 and 10 mM of HEPES (pH 7.4, using NaOH) and an intracellular pipette solution composed of 150 mM of KCL, 3 mM of MgCl2, 5 mM of EGTA and 10 mM of HEPES (pH adjusted to 7.4 with KOH). External solution and modulatory compounds were superfused at a rate of 4‐5 mL min^−1. Currents were recorded using an Axopatch 1D patch clamp amplifier (Molecular Devices), filtered at 0.3 kHz, digitized at 1 kHz.
(§5) For analysis of outward current, we measured the current difference between the −80 and −40 mV. The current‐voltage graphs were obtained from the ramp change in voltage between −120 and +20 mV. For each cell, the current amplitude (pA) was normalized to the cell capacitance (pF). The currents obtained were analysed using pCLAMP 10.2 software (Molecular Devices), Microsoft Excel and GraphPad Prism 6 or 7 software. Data were expressed as the mean ± 95% Confidence Intervals (CI), and n represents the number of individual cells. For EC50 calculations, concentration‐response curves were fitted using the Hill equation. Statistical analysis used were one‐way ANOVA with a post‐hoc Dunnett's test or an unpaired/paired Student's t test. Data were considered statistically different if P < .05. The data and statistical analysis comply with the recommendations on experimental design and analysis in pharmacology.55

[1] = opioid challenged rats, intravenous; cited from earlier work
[2] = opioid challenged cynomolgus monkeys, intravenous; cited from earlier work
human TASK-1 = molecular target: T2, human TASK-1 (Homo sapiens, UniProt O14649); experiment: Whole-cell patch clamp on tsA201 cells expressing cloned human TASK-1; type: cell-based; conditions: for inhibition of human TASK-1 current: acute application; for EC50: tsA201 cells, whole-cell patch clamp, room temperature, read-out: EC50, inhibition of human TASK-1 current
T2 construct: expressed in transfected cells; host or cells: tsA201 (modified HEK293), transient transfection, pcDNA3.1+
T2 sequence (O14649 whole entry): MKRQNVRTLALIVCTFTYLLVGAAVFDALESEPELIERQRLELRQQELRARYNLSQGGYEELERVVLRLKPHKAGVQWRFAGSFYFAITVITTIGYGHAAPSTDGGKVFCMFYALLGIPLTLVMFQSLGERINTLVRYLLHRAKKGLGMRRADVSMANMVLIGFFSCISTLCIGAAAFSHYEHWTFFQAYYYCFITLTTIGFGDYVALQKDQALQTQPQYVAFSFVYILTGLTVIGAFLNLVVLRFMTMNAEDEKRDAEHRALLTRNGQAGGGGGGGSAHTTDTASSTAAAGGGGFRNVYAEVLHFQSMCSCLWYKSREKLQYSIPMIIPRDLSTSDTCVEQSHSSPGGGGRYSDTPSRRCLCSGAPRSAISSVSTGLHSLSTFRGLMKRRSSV
Method: as §1, §2, §3, §4, §5

murTASK-1 = molecular target: T3, murTASK-1 (Mus musculus, UniProt O35111); experiment: Whole-cell patch clamp on tsA201 cells expressing cloned mouse TASK-1; type: cell-based; conditions: 10 µM, acute application
T3 construct: expressed in transfected cells; host or cells: tsA201 (modified HEK293), transient transfection, pCS2+
T3 sequence (O35111 whole entry): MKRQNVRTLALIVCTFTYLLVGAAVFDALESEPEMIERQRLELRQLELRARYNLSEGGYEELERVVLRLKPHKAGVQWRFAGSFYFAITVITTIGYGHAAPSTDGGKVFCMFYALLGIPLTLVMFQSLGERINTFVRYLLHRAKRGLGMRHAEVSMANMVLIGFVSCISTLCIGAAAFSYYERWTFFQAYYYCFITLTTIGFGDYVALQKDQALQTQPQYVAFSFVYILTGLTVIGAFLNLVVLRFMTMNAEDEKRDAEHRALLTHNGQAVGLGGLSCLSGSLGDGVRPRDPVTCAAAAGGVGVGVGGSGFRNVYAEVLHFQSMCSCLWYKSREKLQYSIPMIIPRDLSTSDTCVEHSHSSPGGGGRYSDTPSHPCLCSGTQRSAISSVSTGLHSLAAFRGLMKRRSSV
Method: as §1, §2, §3, §4, §5

murTASK-3 = molecular target: T4, murTASK-3 (Mus musculus, UniProt Q3LS21); experiment: Whole-cell patch clamp on tsA201 cells expressing cloned mouse TASK-3; type: cell-based; conditions: 10 µM, acute application
T4 construct: expressed in transfected cells; host or cells: tsA201 (modified HEK293), transient transfection, pCS2+
T4 sequence (Q3LS21 whole entry): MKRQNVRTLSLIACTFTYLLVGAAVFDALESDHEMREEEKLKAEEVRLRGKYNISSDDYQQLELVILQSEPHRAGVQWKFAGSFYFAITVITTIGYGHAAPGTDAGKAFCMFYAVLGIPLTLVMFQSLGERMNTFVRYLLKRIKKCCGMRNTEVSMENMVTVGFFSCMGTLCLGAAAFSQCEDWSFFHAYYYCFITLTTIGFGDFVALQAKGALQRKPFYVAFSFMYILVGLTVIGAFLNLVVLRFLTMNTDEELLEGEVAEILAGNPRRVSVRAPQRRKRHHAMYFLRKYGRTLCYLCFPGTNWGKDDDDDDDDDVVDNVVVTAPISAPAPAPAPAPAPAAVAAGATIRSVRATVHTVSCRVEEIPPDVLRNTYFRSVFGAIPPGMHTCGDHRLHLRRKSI
Method: as §1, §2, §3, §4, §5

inhibition of human TASK-3 current (human TASK-3; 10 µM, WT) [%]	inhibition of human TASK-3 current (human TASK-3; 100 µM, WT) [%]	inhibition of human TASK-3 current (human TASK-3; 300 µM) [%]	EC50 (human TASK-3) [µM]	inhibition of human TASK-1 current (human TASK-1; 10 µM) [%]	inhibition of human TASK-1 current (human TASK-1; 100 µM) [%]	inhibition of human TASK-1 current (human TASK-1; 300 µM) [%]	EC50 (human TASK-1) [µM]	current inhibition of murTASK-1 (murTASK-1) [%]	inhibition of human TASK-3 current (human TASK-3; 1 µM) [%]	inhibition of human TASK-3 current (human TASK-3; 3 µM) [%]	current inhibition of murTASK-3 (murTASK-3) [%]	inhibition of human TASK-1 current (human TASK-1; 1 µM) [%]	inhibition of human TASK-1 current (human TASK-1; 3 µM) [%]	Structure (SMILES)	effect on minute volume [1]	effect on minute volume [2]
8	35	50	~286	3	24	47	~336	–	–	–	–	–	–	CCN1CC(CCN2CCOCC2)C(c2ccccc2)(c2ccccc2)C1=O (stereo not shown) [GAL‐053]	had no effect	had no effect
79	–	–	~1.4	75	–	–	~1.6	63	43	66	33	45	54	CCN1CC(CCN2CCOCC2)C(c2ccccc2)(c2ccccc2)C1=O (stereo not shown) [GAL‐054]	dose‐dependently increased minute volume	dose‐dependently increased minute volume
